Earlier results on 1 substance are cited in US20240238439A1, “HER3-BINDING ANTIBODY-DRUG CONJUGATE” (Hummingbird Bioscience Pte. Ltd., priority 2023, published 2024).

For the data set the following is noted: subset of EGFR-mutant and TKI-resistant lung cancers, and metastatic breast cancers; cited from earlier work.

Turning to Patritumab-DXd, the clinical responses result is “clinical responses have been observed”.
